Like-named read-outs stand apart in the source and are kept apart here.
Assay: Example 18 Part 2: multiple dose PK (20 mg QID) of 3,4-DAP and 3-N-acetyl metabolite in slow and fast acetylators
Type: in vivo, human
Conditions: for AUC(0-t) / Cmax / Tmax / Vd/F / half-life: both sexes, human, plasma, oral, 20 mg; for Tmax: read-out: Mean Tmax; for Vd/F: read-out: Mean Vz/F; for half-life: read-out: Mean t1/2 (converted)
Method: The following method was used to analyze concentrations of 3,4-diaminopyridine and N-(4-aminopyridin-3-yl)acetamide in plasma and urine samples for the experiments in Example 18. In the LC/MS/MS method, the human plasma and urine samples were extracted using acetonitrile containing 0.1% formic acid. Samples were analyzed by using HPLC with positive ion electrospray MS/MS detection. The column was an Atlantis HILIC Silica column (3 μm, 3×50 mm) at a temperature of 40° C. Mobile phase A was water containing ammonium formate (20 mM) and 0.1% formic acid. Mobile phase B was acetonitrile/isopropanol (90/10; v/v) containing 0.1% formic acid. The flow rate was 0.90 mL/minute. The gradient conditions for human plasma and urine samples were as follows:
The LC/MS/MS method was validated to quantify 3,4-DAP in human plasma in the linear calibration range of 0.500 to 500 ng/mL and from 1.00 to 1000 ng/mL for the 3-N-acetyl metabolite.
The primary objective of the study was to assess the safety and tolerability of 3,4-DAP phosphate after single and multiple doses. The secondary objectives of the study were • Part 1 only: To determine the dose-related PK profile of amifampridine and of 3-N-acetyl amifampridine after single, escalating doses of 3,4-DAP phosphate • Part 2 only: To assess the steady-state plasma PK and accumulation of amifampridine and of 3-N-acetyl amifampridine over multiple days of dosing with 3,4-DAP phosphate An exploratory objective was to examine the overall activity of the N-acetyl transferase enzymes on the metabolism of amifampridine by assessing the PK of amifampridine and 3-N-acetyl amifampridine with phenotypic acetylation activity and genotyping determination of NAT2 gene polymorphisms. Study Design and Plan
This open-label study in healthy subjects (male and female) was conducted in 2 parts. A total of 26 healthy male and female subjects, 12 in Part 1 (at least 5 of each sex), 4 in Part 2 Group 1, and 10 in Part 2 Group 2 (at least 4 of each sex) were enrolled into the study. The same subjects were not enrolled to participate in both parts. Subjects in Part 2 were dosed only after all subjects of Part 1 completed dosing and at least 24-hours of follow-up safety evaluation after the last dose were completed.
All subjects were characterized for their metabolic acetylation phenotype and NAT2 genotype in order to divide subjects into two groups of acetylators. Volunteers were genetically typed for highly variant alleles of the N-acetyl transferase 2 enzyme (NAT2) domain on chromosome 8 (according to Example 16) and were phenotyped for acetylation rates with a caffeine challenge test (according to Example 15a). Approximately equal numbers of slow and fast acetylators (as defined by a caffeine challenge test in Example 15a) were enrolled in each group. In Part 2, very slow acetylators with NAT2 activity (ratio 1, Example 15a) below 0.06 were excluded from participation in the study. In each part of the study, subjects were assessed for PK, safety, and tolerability and all doses were administered within 30 min of ingestion of a meal or a snack.
Part 2, Group 1: Four sentinel subjects were selected after determining their acetylator status. Two were fast acetylators and two were slow acetylators. All four were dosed on Day 1 with 4 oral doses of 20 mg of 34-DAP phosphate (given at 4-hour dosing intervals). On Days […] and 2, safety and tolerability data was collected. Subjects left the clinic on Day 2. The safety and tolerability data collected for these 4 sentinel subjects were reviewed. The safety and tolerability results of Days 1 and 2 for these subjects were acceptable and thus Part 2 Group 2 was commenced. Minimally acceptable safety was defined as the absence of clinical seizure activity. Subjects in Group 1 returned to the clinic for their follow-up assessments 2-4 days following their last dose.
Each subject was given a final morning dose of 20 mg 3,4-DAP phosphate on Day 4. […]

[1] = Day 1, Dose 1, fast acetylators, 20 mg QID
[2] = Day 1, Dose 1, slow acetylators, 20 mg QID
[3] = Day 1, Dose 2, fast acetylators, 20 mg QID
[4] = Day 1, Dose 2, slow acetylators, 20 mg QID
[5] = Day 1, Dose 3, fast acetylators, 20 mg QID
[6] = Day 1, Dose 3, slow acetylators, 20 mg QID
[7] = Day 1, Dose 4, fast acetylators, 20 mg QID
[8] = Day 1, Dose 4, slow acetylators, 20 mg QID
[9] = Day 3, Dose 1, fast acetylators, 20 mg QID
[10] = Day 3, Dose 1, slow acetylators, 20 mg QID
[11] = Day 3, Dose 2, fast acetylators, 20 mg QID
[12] = Day 3, Dose 2, slow acetylators, 20 mg QID
[13] = Day 3, Dose 3, fast acetylators, 20 mg QID
[14] = Day 3, Dose 3, slow acetylators, 20 mg QID
[15] = Day 3, Dose 4, fast acetylators, 20 mg QID
[16] = Day 3, Dose 4, slow acetylators, 20 mg QID
[17] = Day 4, 20 mg single dose, fast acetylators
[18] = Day 4, 20 mg single dose, slow acetylators

## Nc1ccncc1N [3,4-DAP, 3,4-diaminopyridine]
[1]
  Mean CL/F: 898 L/h
  Tmax: 0.809 h
  Vd/F: 1330 L
  half-life: 1.12 h
[2]
  Mean CL/F: 152 L/h
  Tmax: 1.12 h
  Vd/F: 299 L
  half-life: 1.39 h
[3]
  Mean CL/F: 757 L/h
  Tmax: 1.07 h
  Vd/F: 1340 L
  half-life: 1.31 h
[4]
  Mean CL/F: 107 L/h
  Tmax: 1.14 h
  Vd/F: 293 L
  half-life: 1.93 h
[5]
  Mean CL/F: 879 L/h
  Tmax: 0.583 h
  Vd/F: 1720 L
  half-life: 1.3 h
[6]
  Mean CL/F: 117 L/h
  Tmax: 0.857 h
  Vd/F: 269 L
  half-life: 1.59 h
[7]
  Mean CL/F: 885 L/h
  Tmax: 0.643 h
  Vd/F: 1730 L
  half-life: 1.49 h
[8]
  Mean CL/F: 101 L/h
  Tmax: 1.29 h
  Vd/F: 338 L
  half-life: 2.52 h
[9]
  Mean CL/F: 973 L/h
  Tmax: 0.8 h
  Vd/F: 1390 L
  half-life: 1.07 h
[10]
  Mean CL/F: 124 L/h
  Tmax: 1 h
  Vd/F: 283 L
  half-life: 1.6 h
[11]
  Mean CL/F: 607 L/h
  Tmax: 0.9 h
  Vd/F: 1110 L
  half-life: 1.34 h
[12]
  Mean CL/F: 92.9 L/h
  Tmax: 1 h
  Vd/F: 260 L
  half-life: 1.97 h
[13]
  Mean CL/F: 817 L/h
  Tmax: 0.532 h
  Vd/F: 2200 L
  half-life: 1.73 h
[14]
  Mean CL/F: 103 L/h
  Tmax: 0.8 h
  Vd/F: 241 L
  half-life: 1.63 h
[15]
  Mean CL/F: 795 L/h
  Tmax: 0.8 h
  Vd/F: 1870 L
  half-life: 1.82 h
[16]
  Mean CL/F: 73.2 L/h
  Tmax: 0.6 h
  Vd/F: 376 L
  half-life: 3.56 h
[17]
  Mean CL/F: 673 L/h
  Tmax: 0.9 h
  Vd/F: 1770 L
  half-life: 1.95 h
[18]
  Mean CL/F: 108 L/h
  Tmax: 1.2 h
  Vd/F: 486 L
  half-life: 3.24 h
Day 1, Dose 1, fast acetylators, 20 mg QID, read-out: Mean AUC0-4
  AUC(0-t): 23.5 ng·h/mL
Day 1, Dose 1, fast acetylators, 20 mg QID, read-out: Mean Cmax
  Cmax: 24.4 ng/mL
Day 1, Dose 1, slow acetylators, 20 mg QID, read-out: Mean AUC0-4
  AUC(0-t): 115 ng·h/mL
Day 1, Dose 1, slow acetylators, 20 mg QID, read-out: Mean Cmax
  Cmax: 74.8 ng/mL
Day 1, Dose 1-4, fast acetylators, 20 mg QID, read-out: Mean AUC0-24
  AUC(0-t): 97.9 ng·h/mL
Day 1, Dose 1-4, slow acetylators, 20 mg QID, read-out: Mean AUC0-24
  AUC(0-t): 630 ng·h/mL
Day 1, Dose 2, fast acetylators, 20 mg QID, read-out: Mean AUC0-4
  AUC(0-t): 22.5 ng·h/mL
Day 1, Dose 2, fast acetylators, 20 mg QID, read-out: Mean Cmax
  Cmax: 13.3 ng/mL
Day 1, Dose 2, slow acetylators, 20 mg QID, read-out: Mean AUC0-4
  AUC(0-t): 152 ng·h/mL
Day 1, Dose 2, slow acetylators, 20 mg QID, read-out: Mean Cmax
  Cmax: 83.7 ng/mL
Day 1, Dose 3, fast acetylators, 20 mg QID, read-out: Mean AUC0-4
  AUC(0-t): 24.1 ng·h/mL
Day 1, Dose 3, fast acetylators, 20 mg QID, read-out: Mean Cmax
  Cmax: 16.8 ng/mL
Day 1, Dose 3, slow acetylators, 20 mg QID, read-out: Mean AUC0-4
  AUC(0-t): 140 ng·h/mL
Day 1, Dose 3, slow acetylators, 20 mg QID, read-out: Mean Cmax
  Cmax: 72.2 ng/mL
Day 1, Dose 4, fast acetylators, 20 mg QID, read-out: Mean AUC0-4
  AUC(0-t): 23.7 ng·h/mL
Day 1, Dose 4, fast acetylators, 20 mg QID, read-out: Mean Cmax
  Cmax: 16.4 ng/mL
Day 1, Dose 4, slow acetylators, 20 mg QID, read-out: Mean AUC0-4
  AUC(0-t): 145 ng·h/mL
Day 1, Dose 4, slow acetylators, 20 mg QID, read-out: Mean Cmax
  Cmax: 67.1 ng/mL
Day 3, Dose 1, fast acetylators, 20 mg QID, read-out: Mean AUC0-4
  AUC(0-t): 24.9 ng·h/mL
Day 3, Dose 1, fast acetylators, 20 mg QID, read-out: Mean Cmax
  Cmax: 24 ng/mL
Day 3, Dose 1, slow acetylators, 20 mg QID, read-out: Mean AUC0-4
  AUC(0-t): 130 ng·h/mL
Day 3, Dose 1, slow acetylators, 20 mg QID, read-out: Mean Cmax
  Cmax: 81.2 ng/mL
Day 3, Dose 1-4, fast acetylators, 20 mg QID, read-out: Mean AUC0-24
  AUC(0-t): 111 ng·h/mL
Day 3, Dose 1-4, slow acetylators, 20 mg QID, read-out: Mean AUC0-24
  AUC(0-t): 701 ng·h/mL
Day 3, Dose 2, fast acetylators, 20 mg QID, read-out: Mean AUC0-4
  AUC(0-t): 28.5 ng·h/mL
Day 3, Dose 2, fast acetylators, 20 mg QID, read-out: Mean Cmax
  Cmax: 18.7 ng/mL
Day 3, Dose 2, slow acetylators, 20 mg QID, read-out: Mean AUC0-4
  AUC(0-t): 164 ng·h/mL
Day 3, Dose 2, slow acetylators, 20 mg QID, read-out: Mean Cmax
  Cmax: 96.1 ng/mL
Day 3, Dose 3, fast acetylators, 20 mg QID, read-out: Mean AUC0-4
  AUC(0-t): 25.8 ng·h/mL
Day 3, Dose 3, fast acetylators, 20 mg QID, read-out: Mean Cmax
  Cmax: 21.9 ng/mL
Day 3, Dose 3, slow acetylators, 20 mg QID, read-out: Mean AUC0-4
  AUC(0-t): 156 ng·h/mL
Day 3, Dose 3, slow acetylators, 20 mg QID, read-out: Mean Cmax
  Cmax: 80.9 ng/mL
Day 3, Dose 4, fast acetylators, 20 mg QID, read-out: Mean AUC0-4
  AUC(0-t): 25.1 ng·h/mL
Day 3, Dose 4, fast acetylators, 20 mg QID, read-out: Mean Cmax
  Cmax: 16.2 ng/mL
Day 3, Dose 4, slow acetylators, 20 mg QID, read-out: Mean AUC0-4
  AUC(0-t): 168 ng·h/mL
Day 3, Dose 4, slow acetylators, 20 mg QID, read-out: Mean Cmax
  Cmax: 97.1 ng/mL
Day 4, 20 mg single dose, fast acetylators, read-out: Mean AUC0-4
  AUC(0-t): 22.6 ng·h/mL
Day 4, 20 mg single dose, fast acetylators, read-out: Mean AUC0-24
  AUC(0-t): 25.9 ng·h/mL
Day 4, 20 mg single dose, fast acetylators, read-out: Mean Cmax
  Cmax: 13.6 ng/mL
Day 4, 20 mg single dose, slow acetylators, read-out: Mean AUC0-4
  AUC(0-t): 133 ng·h/mL
Day 4, 20 mg single dose, slow acetylators, read-out: Mean AUC0-24
  AUC(0-t): 186 ng·h/mL
Day 4, 20 mg single dose, slow acetylators, read-out: Mean Cmax
  Cmax: 72.5 ng/mL
Days 1-4, 20 mg QID, fast acetylators, read-out: plasma mean Cmax values, range
  Cmax: 13.3 to 24.4 ng/mL
Days 1-4, 20 mg QID, slow acetylators, read-out: plasma mean Cmax values, range
  Cmax: 67.1 to 97.1 ng/mL

From US11274332B2, “Methods of administering 3,4-diaminopyridine” (SERB SA, priority 2011, dated 2022)
